Experimental data from US20040146482A1, “Cosmetic and/or pharmaceutical preparations containing an extract of pterocarpus marsupium” (priority 2001, published 2004).

Test system: human keratinocytes
Experiment: Cell protecting effect against UV-B in keratinocytes cultivated in vitro
Format: cell-based
Conditions: UV-B 50 mJ/cm2, concentration not given
Text: Background: UV-B rays cause inflammation (erythema, edema) by activating an enzyme, namely phospholipase A2 or PLA2, which removes arachidonic acid from the phospholipids of the cell membrane. Arachidonic acid is the precursor of the prostaglandins which cause inflammation and cell membrane damage; the prostaglandins E2 (=PGE2) are formed by cyclooxygenase. A UV-challenged cell produces another inflammation mediator, namely interleucine-1-alpha (1′ILα), which is capable of inducing the secretion of prostaglandins.
Method: The effect of UV-B radiation was investigated in vitro in keratinocytes by determining the release of the cytoplasm enzyme LDH (lactate dehydrogenase) and the(1′ILα) content.
To carry out the tests, a defined medium containing fetal calf serum was inoculated with the keratinocytes and Trichodyn® was added 72 hours after the inoculation.
The keratinocytes were then exposed to a dose of UV-B (50 mJ/cm^2-tubes: DUKE GL40E).
After incubation for another day at 37° C./5% CO2, the LDH content in the supernatant was determined. The LDH (lactate dehydrogenase) content was determined by an enzyme reaction (kit used to determine LDH levels from Roche). In addition , the (1′ILα) content was determined by the ELISA test. The number of adhering keratinocytes was determined (after trypsin treatment) with a particle counter.

Compound: CC(=O)Oc1ccccc1C(=O)O [aspirin]
- (1′ILα) content (UV-B alone = 100): 69%
- Content of released LDH (UV-B alone = 100): 66%
- No. of keratinocytes (control without UV-B = 100, UV-B alone 17): 15%
